The results in this text go back to patent publication US20240182487A1, “MACROCYCLES AND THEIR USE” (BLOSSOMHILL THERAPEUTICS, INC., priority 2020, published 2024).

What all share (format): biochemical
For assay [1], the target named is EGFR WT (Homo sapiens (Human), UniProt P00533). Description: HotSpot radiometric kinase assay, EGFR WT. Particulars: radiometric filter-binding, 10 μM ATP. As to the method: (§1) Biochemical Assays for Inhibition of Wild-Type and Mutant EGFRs
(§2) The inhibitory activities against EGFR WT, EGFR Δ752-759 mutant, EGFR Δ746-750/T790M mutant, EGFR Δ746-750/C797S mutant, EGFR Δ746-750/T790M/C797S mutant. […] Briefly, specific kinase/substrate pairs along with required cofactors were prepared in reaction buffer; 20 mM Hepes pH 7.5, 10 mM MgCl2, 1 mM EGTA, 0.02% Brij35, 0.02 mg/ml BSA, 0.1 mM Na3VO4, 2 mM DTT, 1% DMSO. Compounds were delivered into the reaction, followed ˜20 minutes later by addition of a mixture of ATP (Sigma, St. Louis MO) and ^33P ATP (Perkin Elmer, Waltham MA) to a final concentration of 10 μM. Reactions were carried out at room temperature for 120 min, followed by spotting of the reactions onto P81 ion exchange filter paper (Whatman Inc., Piscataway, NJ). Unbound phosphate was removed by extensive washing of filters in 0.75% phosphoric acid. […] IC50 values and curve fits were obtained using Prism (GraphPad Software).

Assay [2] concerns the target EGFR L858R mutant (Homo sapiens (Human), UniProt P00533, L858R). Description: HotSpot radiometric kinase assay, EGFR L858R. Particulars: radiometric filter-binding, 10 μM ATP.
Assay [3] deals with EGFR Δ746-750/T790M mutant (Homo sapiens (Human), UniProt P00533, DEL746-750/T790M). Description: HotSpot radiometric kinase assay, EGFR Δ746-750/T790M. The conditions noted are these: radiometric filter-binding, 10 μM ATP. As for the experimental part:
as §1, §2

The target of assay [4] is EGFR L858R/T790M mutant (Homo sapiens (Human), UniProt P00533, L858R/T790M). Description: HotSpot radiometric kinase assay, EGFR L858R/T790M. Particulars: radiometric filter-binding, 10 μM ATP; read-out: EGFR (L858R/T790M)_IC50.
For assay [5], the target named is EGFR Δ746-750/T790M/C797S mutant (Homo sapiens (Human), UniProt P00533, C797S/DEL746-750/T790M). Description: HotSpot radiometric kinase assay, EGFR Δ746-750/T790M/C797S. Particulars: radiometric filter-binding, 10 μM ATP. As for the experimental part: as §1, §2
The target in assay [6] is EGFR Δ746-750/C797S mutant (Homo sapiens (Human), UniProt P00533, C797S/DEL746-750). Description: HotSpot radiometric kinase assay, EGFR Δ746-750/C797S. Particulars: radiometric filter-binding, 10 μM ATP. As to the method:
as §1, §2

The target of assay [7] is EGFR L858R/T790M/C797S mutant (Homo sapiens (Human), UniProt P00533, C797S/L858R/T790M). Description: HotSpot radiometric kinase assay, EGFR L858R/T790M/C797S. The conditions noted are these: radiometric filter-binding, 10 μM ATP; read-out: EGFR (L858R/T790M/C797S/)_IC50.
Assay [8] has as its target EGFR (Δ746-750) (Homo sapiens (Human), UniProt P00533, DEL746-750). Description: HotSpot radiometric kinase assay, EGFR Δ746-750. The conditions noted are these: radiometric filter-binding, 10 μM ATP.
Assay [9] deals with EGFR L858R/C797S mutant (Homo sapiens (Human), UniProt P00533, C797S/L858R). Description: HotSpot radiometric kinase assay, EGFR L858R/C797S. Particulars: radiometric filter-binding, 10 μM ATP.
Sequence of EGFR L858R/C797S mutant (P00533 25-1210 C797S/L858R): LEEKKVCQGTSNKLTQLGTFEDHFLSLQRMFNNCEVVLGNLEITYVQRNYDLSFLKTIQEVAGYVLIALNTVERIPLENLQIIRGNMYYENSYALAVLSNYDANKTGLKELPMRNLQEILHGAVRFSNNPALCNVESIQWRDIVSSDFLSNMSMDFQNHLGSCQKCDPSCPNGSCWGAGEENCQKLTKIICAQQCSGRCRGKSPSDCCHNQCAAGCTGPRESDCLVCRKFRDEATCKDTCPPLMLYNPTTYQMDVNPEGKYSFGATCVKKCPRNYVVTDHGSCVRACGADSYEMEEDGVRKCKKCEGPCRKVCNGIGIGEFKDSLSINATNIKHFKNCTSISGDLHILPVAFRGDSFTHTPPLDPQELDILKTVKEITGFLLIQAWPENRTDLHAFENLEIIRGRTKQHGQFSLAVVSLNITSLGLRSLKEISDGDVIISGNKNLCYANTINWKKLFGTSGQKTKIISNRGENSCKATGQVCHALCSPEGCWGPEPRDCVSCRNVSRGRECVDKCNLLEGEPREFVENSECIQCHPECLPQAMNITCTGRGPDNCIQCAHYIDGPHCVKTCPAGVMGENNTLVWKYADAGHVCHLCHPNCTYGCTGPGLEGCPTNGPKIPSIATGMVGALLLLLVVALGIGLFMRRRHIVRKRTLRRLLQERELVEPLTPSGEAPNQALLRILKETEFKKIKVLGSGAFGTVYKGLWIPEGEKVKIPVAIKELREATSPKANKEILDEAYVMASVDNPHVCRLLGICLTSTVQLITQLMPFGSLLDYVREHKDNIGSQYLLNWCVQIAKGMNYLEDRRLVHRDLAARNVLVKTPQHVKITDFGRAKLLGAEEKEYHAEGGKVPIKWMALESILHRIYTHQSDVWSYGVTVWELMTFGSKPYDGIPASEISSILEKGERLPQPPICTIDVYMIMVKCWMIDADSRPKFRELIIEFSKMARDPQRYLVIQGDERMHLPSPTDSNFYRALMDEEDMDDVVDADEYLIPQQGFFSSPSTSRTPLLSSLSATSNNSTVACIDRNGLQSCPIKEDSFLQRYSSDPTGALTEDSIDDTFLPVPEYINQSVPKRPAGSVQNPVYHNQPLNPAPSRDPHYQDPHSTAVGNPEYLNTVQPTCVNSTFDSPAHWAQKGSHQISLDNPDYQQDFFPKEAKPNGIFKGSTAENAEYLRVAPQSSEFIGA

Sequence of EGFR L858R mutant (P00533 25-1210 L858R): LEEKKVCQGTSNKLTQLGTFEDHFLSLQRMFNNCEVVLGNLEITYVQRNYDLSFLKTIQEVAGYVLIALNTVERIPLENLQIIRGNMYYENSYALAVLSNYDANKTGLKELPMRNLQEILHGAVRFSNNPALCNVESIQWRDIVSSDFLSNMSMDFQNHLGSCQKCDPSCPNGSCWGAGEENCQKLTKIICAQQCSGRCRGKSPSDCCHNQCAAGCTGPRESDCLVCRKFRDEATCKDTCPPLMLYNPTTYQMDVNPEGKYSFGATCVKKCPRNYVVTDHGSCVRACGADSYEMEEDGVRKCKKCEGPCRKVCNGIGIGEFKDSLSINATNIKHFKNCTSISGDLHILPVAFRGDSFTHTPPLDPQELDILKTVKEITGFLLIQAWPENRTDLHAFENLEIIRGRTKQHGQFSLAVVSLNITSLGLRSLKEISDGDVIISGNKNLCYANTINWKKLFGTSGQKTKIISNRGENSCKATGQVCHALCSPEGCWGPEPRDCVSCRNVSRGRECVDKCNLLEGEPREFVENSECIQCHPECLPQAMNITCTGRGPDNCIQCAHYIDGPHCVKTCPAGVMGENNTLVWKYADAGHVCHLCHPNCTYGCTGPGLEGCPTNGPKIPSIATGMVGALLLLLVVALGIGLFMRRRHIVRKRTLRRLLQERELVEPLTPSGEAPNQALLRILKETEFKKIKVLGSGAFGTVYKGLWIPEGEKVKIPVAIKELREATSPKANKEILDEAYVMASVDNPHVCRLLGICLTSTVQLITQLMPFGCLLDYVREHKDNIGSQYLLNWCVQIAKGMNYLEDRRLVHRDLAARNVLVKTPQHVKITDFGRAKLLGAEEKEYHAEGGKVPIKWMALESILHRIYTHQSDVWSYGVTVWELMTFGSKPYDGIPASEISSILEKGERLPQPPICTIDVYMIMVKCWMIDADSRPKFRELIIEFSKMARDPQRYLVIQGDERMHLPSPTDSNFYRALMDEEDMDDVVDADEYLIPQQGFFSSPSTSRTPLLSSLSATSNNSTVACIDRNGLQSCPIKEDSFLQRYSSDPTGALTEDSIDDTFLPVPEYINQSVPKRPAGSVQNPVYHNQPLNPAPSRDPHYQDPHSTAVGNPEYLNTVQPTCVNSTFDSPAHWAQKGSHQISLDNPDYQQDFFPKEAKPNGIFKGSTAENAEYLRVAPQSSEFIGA
Sequence of EGFR WT (P00533 25-1210): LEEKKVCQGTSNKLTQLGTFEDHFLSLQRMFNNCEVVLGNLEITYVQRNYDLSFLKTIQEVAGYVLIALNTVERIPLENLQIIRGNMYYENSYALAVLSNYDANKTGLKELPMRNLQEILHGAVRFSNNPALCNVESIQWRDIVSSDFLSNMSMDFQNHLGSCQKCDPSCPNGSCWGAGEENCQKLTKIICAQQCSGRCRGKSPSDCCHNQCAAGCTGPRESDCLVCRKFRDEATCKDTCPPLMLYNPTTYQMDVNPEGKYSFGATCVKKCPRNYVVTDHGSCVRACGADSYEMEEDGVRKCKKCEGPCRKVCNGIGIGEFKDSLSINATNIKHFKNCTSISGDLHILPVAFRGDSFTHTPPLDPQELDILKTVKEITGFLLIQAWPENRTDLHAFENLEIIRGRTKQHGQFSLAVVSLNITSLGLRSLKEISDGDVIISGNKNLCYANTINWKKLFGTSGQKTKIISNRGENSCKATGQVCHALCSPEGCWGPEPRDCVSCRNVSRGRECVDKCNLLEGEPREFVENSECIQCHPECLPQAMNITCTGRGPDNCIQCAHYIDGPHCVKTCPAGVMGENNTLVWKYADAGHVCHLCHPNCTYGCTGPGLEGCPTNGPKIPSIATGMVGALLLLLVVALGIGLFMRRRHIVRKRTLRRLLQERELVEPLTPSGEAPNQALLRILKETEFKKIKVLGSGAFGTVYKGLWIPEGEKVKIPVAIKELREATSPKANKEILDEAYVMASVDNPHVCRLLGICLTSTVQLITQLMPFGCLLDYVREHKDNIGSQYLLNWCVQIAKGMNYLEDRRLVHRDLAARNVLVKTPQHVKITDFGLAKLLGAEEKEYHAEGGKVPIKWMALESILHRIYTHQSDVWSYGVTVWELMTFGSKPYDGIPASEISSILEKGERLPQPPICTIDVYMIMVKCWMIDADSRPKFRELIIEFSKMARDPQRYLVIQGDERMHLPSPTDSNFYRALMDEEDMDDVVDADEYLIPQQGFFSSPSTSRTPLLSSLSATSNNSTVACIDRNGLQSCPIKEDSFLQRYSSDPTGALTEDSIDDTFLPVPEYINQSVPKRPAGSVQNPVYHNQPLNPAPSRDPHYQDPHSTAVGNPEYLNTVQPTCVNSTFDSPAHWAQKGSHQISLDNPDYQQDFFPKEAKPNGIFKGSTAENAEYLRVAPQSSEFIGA
Sequence of EGFR Δ746-750/C797S mutant (P00533 other isoform, or with tags, fused parts or gaps C797S/del 1-668/del 746-750 limits assumed): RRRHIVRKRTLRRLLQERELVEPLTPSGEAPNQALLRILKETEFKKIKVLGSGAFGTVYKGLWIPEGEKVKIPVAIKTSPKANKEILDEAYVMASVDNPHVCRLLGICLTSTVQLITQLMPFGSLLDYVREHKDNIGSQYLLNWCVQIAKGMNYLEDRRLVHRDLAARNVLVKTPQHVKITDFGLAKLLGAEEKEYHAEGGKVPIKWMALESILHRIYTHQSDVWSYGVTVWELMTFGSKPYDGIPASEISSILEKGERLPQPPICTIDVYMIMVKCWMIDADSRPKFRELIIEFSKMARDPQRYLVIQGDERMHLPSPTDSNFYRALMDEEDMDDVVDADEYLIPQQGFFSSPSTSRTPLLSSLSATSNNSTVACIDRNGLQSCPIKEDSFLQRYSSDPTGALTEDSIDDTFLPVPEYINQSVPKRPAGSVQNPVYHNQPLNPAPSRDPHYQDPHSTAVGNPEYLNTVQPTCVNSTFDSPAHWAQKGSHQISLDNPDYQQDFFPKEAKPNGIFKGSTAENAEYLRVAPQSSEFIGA
Sequence of EGFR (Δ746-750) (P00533 other isoform, or with tags, fused parts or gaps del 1-668/del 746-750 limits assumed): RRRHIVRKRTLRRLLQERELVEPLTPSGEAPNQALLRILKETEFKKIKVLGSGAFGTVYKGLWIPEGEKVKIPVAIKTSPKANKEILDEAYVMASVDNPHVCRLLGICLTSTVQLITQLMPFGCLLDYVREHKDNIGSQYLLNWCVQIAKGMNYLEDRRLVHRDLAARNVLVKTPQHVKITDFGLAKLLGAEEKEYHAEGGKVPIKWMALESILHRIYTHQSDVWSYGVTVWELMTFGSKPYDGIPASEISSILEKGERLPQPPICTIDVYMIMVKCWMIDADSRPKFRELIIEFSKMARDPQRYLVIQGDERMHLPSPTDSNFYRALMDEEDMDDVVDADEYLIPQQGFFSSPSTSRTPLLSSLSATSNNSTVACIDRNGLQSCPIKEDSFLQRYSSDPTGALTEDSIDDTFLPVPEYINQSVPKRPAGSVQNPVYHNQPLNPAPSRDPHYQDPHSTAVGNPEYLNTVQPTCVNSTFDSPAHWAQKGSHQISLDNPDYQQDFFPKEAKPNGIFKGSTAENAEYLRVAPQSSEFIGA

In the case of `Cn1ncc2c1OCCCOc1ccccc1/C=C/c1n[nH]c3cnc-2cc13` [Cpd. 1, (11E)-1-methyl-19,20-dihydro-1H,8H,18H-10,7,4-(ethan[1]yl[1,2]diylidene)pyrazolo[3,4-f][1,5,9,12,13]benzodioxatriazacyclooctadecine], the IC50 in assay [1] worked out at 0.0464 µM; in [2], 0.0291 µM; in assay [3], 0.0021 µM; in assay [4] it was 0.0041 µM; in assay [5] it was 0.00022 µM; in assay [6] it was 0.0048 µM. The IC50 stood at 0.015 µM in assay [7], 0.0068 µM in [8] and 0.055 µM in assay [9].

On to `Cn1ncc2c1OCCCOc1ccccc1/C=C/c1n[nH]c3ccc-2nc13` [Cpd. 2, (18E)-8-methyl-2,8,11,12-tetrahydro-10H-3,5-ethenodipyrazolo[3,4-f:4′,3′-j][1,5,9]benzodioxazacyclopentadecine], for which the IC50 is 0.554 µM in assay [1]; 0.258 µM in assay [2]; 0.0229 µM in [3]; 0.301 µM in assay [4]; 0.0293 µM in assay [5]; 0.0162 µM in [6]. Further, the IC50 turned out to be 0.692 µM in assay [7], 0.0491 µM in [8] and 0.595 µM in assay [9].

In the case of `Cn1ncc2c1OCCCOc1ccccc1/C=C/c1n[nH]c3ccc-2cc13` [Cpd. 3, (11E)-1-methyl-19,20-dihydro-1H,8H,18H-10,7,4-(ethan[1]yl[1,2]diylidene)pyrazolo[3,4-f][1,5,12,13]benzodioxadiazacyclooctadecine], the IC50 is 1.05 µM in assay [1]; 0.374 µM in [2]; 0.0132 µM in assay [3]; 0.138 µM in assay [4]; 0.0102 µM in [5]; 0.0244 µM in assay [6]. In addition, the IC50 turned out to be 0.279 µM in assay [7], 0.079 µM in assay [8] and 1.07 µM in assay [9].

As to `Cn1ncc2c1COCCOc1ccccc1/C=C/c1n[nH]c3cnc-2nc13` [Cpd. 16, (18E)-8-methyl-8,9,11,12-tetrahydro-2H-5,3-(azenometheno)dipyrazolo[3,4-f:4′,3′-j][1,4,9]benzodioxazacyclopentadecine], the IC50 came out at 0.0384 µM in [3], 0.0051 µM in assay [5], 0.0613 µM in [6] and 0.0329 µM in assay [8].

Consider `CCc1nn(C)c2c1/C=C/c1n[nH]c3cnc(cc13)-c1cc(F)ccc1OCCN(C)C2=O` [Cpd. 62, (18E)-17-ethyl-7-fluoro-13,15-dimethyl-2,12,13,15-tetrahydro-5,3-(azenometheno)dipyrazolo[3,4-f:3′,4′-j][1,4]benzoxazacyclopentadecin-14(11H)-one], for which the IC50 in assay [3] was 0.0041 µM; in [5] it was 0.0005 µM; in assay [6] it was 0.0057 µM; in assay [8], 0.0455 µM.

As for `Cn1ncc2c1COCCOc1ccccc1/C=C/c1n[nH]c3cnc-2cc13` [Cpd. 63, (11E)-1-methyl-1,18,19,21-tetrahydro-8H-10,7,4-(ethan[1]yl[1,2]diylidene)pyrazolo[3,4-f][1,4,9,12,13]benzodioxatriazacyclooctadecine], the IC50 in [3] is 0.0028 µM; in assay [5], 0.0002 µM; in assay [6], 0.0077 µM; in assay [8], 0.0149 µM.

As for `Cc1ccc2c(n1)/C=C/c1n[nH]c3cnc(nc13)-c1cnn(C)c1C(C)OCCO2` (stereo not drawn) [Cpd. 65, (18E)-8,9,16-trimethyl-8,9,11,12-tetrahydro-2H-5,3-(azenometheno)dipyrazolo[3,4-f:4′,3′-j]pyrido[2,3-n][1,4,9]dioxazacyclopentadecine], the IC50 in assay [3] is 0.0359 µM; in [5] it was 0.0039 µM; in assay [6] it was 0.0341 µM; in assay [8] it was 0.281 µM.

For `CN(C)CCNC(=O)c1ccc2c(c1)/C=C/c1n[nH]c3cnc(cc13)-c1cnn(C)c1OCCCO2` [Cpd. 71], the IC50 in assay [1] came to 0.0039 µM; in [2], 0.0016 µM; in [7], 0.0037 µM; in assay [8], 0.0024 µM.

On to `CN(C)CCNC(=O)c1ccc2c(c1)OCCOCc1c(cnn1C)-c1cc3c(n[nH]c3cn1)/C=C/2` [Cpd. 81, (11E)-N-[2-(dimethylamino)ethyl]-1-methyl-1,18,19,21-tetrahydro-8H-10,7,4-(ethan[1]yl[1,2]diylidene)pyrazolo[3,4-f][1,4,9,12,13]benzodioxatriazacyclooctadecine-15-carboxamide], for which the IC50 in assay [1] was 0.0946 µM; in [2], 0.0281 µM; in [7], 0.0141 µM; in assay [8], 0.0401 µM.

`Cc1ccc2c(n1)/C=C/c1n[nH]c3cnc(cc13)-c1cnn(C)c1C(C)OCCO2` (stereo not drawn) [Cpd. 95, (18E)-8,9,16-trimethyl-8,9,11,12-tetrahydro-2H-5,3-(azenometheno)dipyrazolo[3′,4′:9,10;4″,3″:13,14][1,4]dioxacyclopentadecino[6,5-b]pyridine] came in with an IC50 in assay [8] of 0.139 µM.

In turn, `CN1CCN(C(=O)c2ccc3c(c2)/C=C/c2n[nH]c4cnc(cc24)-c2cnn(C)c2COCCO3)CC1` [Cpd. 96, (4-methylpiperazin-1-yl)[(11E)-1-methyl-1,18,19,21-tetrahydro-8H-10,7,4-(ethan[1]yl[1,2]diylidene)pyrazolo[3,4-f][1,4,9,12,13]benzodioxatriazacyclooctadecin-14-yl]methanone] gave an IC50 in [8] of 0.74 µM.

`CN1CCC(NC(=O)c2ccc3c(c2)/C=C/c2n[nH]c4cnc(cc24)-c2cnn(C)c2OCCCO3)CC1` [Cpd. 97, (11E)-1-methyl-N-(1-methylpiperidin-4-yl)-19,20-dihydro-1H,8H,18H-10,7,4-(ethan[1]yl[1,2]diylidene)pyrazolo[3,4-f][1,5,9,12,13]benzodioxatriazacyclooctadecine-14-carboxamide]: the IC50 in assay [8] was 0.0097 µM.

Regarding `Cc1nc2cc3c(n[nH]c13)/C=C/c1cc(F)ccc1OCCCOc1c-2cnn1C` [Cpd. 98, (11E)-14-fluoro-1,6-dimethyl-19,20-dihydro-1H,8H,18H-10,7,4-(ethan[1]yl[1,2]diylidene)pyrazolo[3,4-f][1,5,9,12,13]benzodioxatriazacyclooctadecine], the IC50 in [8] is 0.836 µM.

With `CN1CCOCCN(c2ccc(F)c(Cl)c2)c2cc3c(n[nH]c3cn2)/C=C/c2cn(C)nc2C1=O` [Cpd. 99, (17E)-6-(3-chloro-4-fluorophenyl)-12,15-dimethyl-2,7,8,11,12,15-hexahydro-6H-5,3-(azenometheno)dipyrazolo[3,4-f:3′,4′-j][1,4,14]oxadiazacyclohexadecin-13(10H)-one], the IC50 in assay [3] amounted to 8.53 µM; in assay [5], 3.38 µM; in [6] it was 0.0113 µM; in [8], 0.0844 µM.

The compound `Cn1ncc2c1OCCCOc1ccc(F)cc1/C=C/c1n[nH]c3cnc-2cc13` [Cpd. 100, (11E)-14-fluoro-1-methyl-19,20-dihydro-1H,8H,18H-10,7,4-(ethan[1]yl[1,2]diylidene)pyrazolo[3,4-f][1,5,9,12,13]benzodioxatriazacyclooctadecine] displayed an IC50 in [8] of 0.024 µM.
